Structures can show the parent of a compound that is named as a salt.

The assay addresses T1, Bradykinin receptor (Cavia porcellus, UniProt O70526).
T1 construct: The ileum was removed and homogenized in buffer; from tissue; host or cells: guinea pig ileum, crude membrane suspension
T1 sequence (O70526 1-372): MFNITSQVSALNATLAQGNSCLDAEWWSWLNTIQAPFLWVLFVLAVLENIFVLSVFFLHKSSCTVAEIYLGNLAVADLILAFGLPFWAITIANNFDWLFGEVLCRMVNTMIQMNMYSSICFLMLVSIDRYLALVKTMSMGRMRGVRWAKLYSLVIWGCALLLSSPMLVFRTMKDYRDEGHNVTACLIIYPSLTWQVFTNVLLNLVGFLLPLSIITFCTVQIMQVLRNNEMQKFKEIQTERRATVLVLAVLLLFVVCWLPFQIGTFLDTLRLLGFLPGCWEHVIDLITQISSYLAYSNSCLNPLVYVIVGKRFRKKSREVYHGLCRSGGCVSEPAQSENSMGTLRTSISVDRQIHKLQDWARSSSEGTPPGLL
Kind of assay: 3H-Bradykinin receptor binding (crude ileum membrane). Further details: species or system guinea pig (male Hartly strain). The note with it: concentration: 1 × 10^-6 M; guinea pig ileum membrane, room temperature, 60 minutes. On the procedure:
^3 H-Bradykinin receptor binding
(a) Crude ileum membrane preparation
Male Hartly strain guinea pigs were sacrificed by decapitation. The ileum was removed and homogenized in buffer (50 mM trimethylaminoethanesulfonic acid (TES), 1 mM 1,10-phenanthroline pH 6.8). The homogenate was centrifuged (1000× g, 20 minutes) to remove tissue clumps and the supernatant was centrifuges (100,000× g, 60 minutes) to yield a pellet. The pellet was resuspended in buffer (50 mM TES, 1 mM 1,10-phenanthroline, 140 mg/l bacitracin, 1 mM dithiothreiol, 0.1% bovine serum albumin pH 6.8) and homogenized with a glass-teflon homogenizer to yield suspension which was referred to as crude membrane suspension. The obtained membrane suspension was stored at -80° C. until use.
(b) ^3 H-Bradykinin binding to the membrane
The frozen crude membrane suspension was thawed. In binding assays, ^3 H-Bradykinin ([…]) and drug (1×10^-6 M) were incubated with 50 μl of the membrane suspension at room temperature for 60 minutes in a final volume of 250 μl. Separation of receptor-bound from free ^3 H-Bradykinin is achieved by immediate filtration under vacuum and washed three times with 5 ml of ice-cold buffer (50 mM Tris-HCl pH 7.5). Non-specific binding was defined as binding in the presence of 0.1 μM Bradykinin. The radioactivity retained on rinsed filters was determined by a liquid-scintillation counter.
In general, inhibition refers to the relative decrease from the control value, in per cent. Lower therefore signals a weak effect. In turn, `Cc1ccc2cccc(OCc3c(Cl)ccc(N(C)C(=O)CNC(=O)CNc4nc5ccccc5s4)c3Cl)c2n1` [2-(14), 8-[3-[N-[2-(2-Benzothiazolylamino)acetylglycyl]-N-methylamino]-2,6-dichlorobenzyloxy]-2-methylquinoline] returned an inhibition at 1 µM of 96%.
On to `CNC(=O)c1ccc(/C=C/C(=O)NCC(=O)N(C)c2ccc(Cl)c(COc3cccc4c(NCCOC)cc(C)nc34)c2Cl)cc1` [10-(9) dihydrochloride], for which the inhibition at 1 µM stood at 99%.
`CNC(=O)c1nc2ccc(C(=O)NCC(=O)N(C)c3ccc(Cl)c(COc4cccc5ccc(C)nc45)c3Cl)cc2cc1C` [25-(2) dihydrochloride]: 1 µM produced 96% inhibition.
On to `COC(=O)c1cncc(NC(=O)NCC(=O)N(C)c2ccc(Cl)c(COc3cccc4ccc(C)nc34)c2Cl)c1` [34-(3), 8-[2,6-Dichloro-3-[N-[N'-(5-methoxycarbonylpyridin-3-yl)ureidoacetyl]-N-methylamino]benzyloxy]-2-methylquinoline], for which testing at 1 µM gave an inhibition of 100%.
As to `CNC(=O)c1ccc(/C=C/C(=O)NCC(=O)N(C)c2ccc(Cl)c(COc3cccc4ccc(C)nc34)c2)cc1` [37-(5) hydrochloride], 1 µM produced 100% inhibition.
The result for `CNC(=O)c1ccc(/C=C/C(=O)NCC(=O)N(C)c2ccc(C)c(COc3cccn4c(=O)cc(C)nc34)c2C)cc1` [90-(2), 9-[2,6-Dimethyl-3-[N-methyl-N-[4(methylcarbomoyl)cinnamoylglycyl]amino]benzyloxy]-2-methyl-4H-pyrido-[1,2-a]pyrimidin-4-one] reads 98%; that for `CNC(=O)c1ccc(/C=C/C(=O)NCC(=O)N(C)c2ccc(Cl)c(CNc3cccc4ccc(C)nc34)c2Cl)cc1` [Example 73-(4), 8-[2,6-dichloro-3-[N-methyl-N-[4-(methylcarbamoyl)cinnamoylglycyl]amino]benzylamino]-2-methylquinoline dihydrochloride], 95%.

The record behind these values is US5994368A, “Pyridopyrimidones, quinolines and fused N-heterocycles as bradykinin antagonists” (Fujisawa Pharmaceutical Co., Ltd., priority 1994, dated 1999).
